Assay results: US8236792B2, “Substituted pyrrolidine amides as modulators of the histamine H3 receptor” (Janssen Pharmaceutica NV, priority 2008, dated 2012)
pKi: −log10 of the molar value.

Target: human H3 receptor (Homo sapiens, UniProt Q9Y5N1)
Assay: H3 Receptor Binding (Human) Method 2, [125I]-iodoproxyfan competitive radioligand binding
Set-up: expressed in transfected cells
Settings: read-out: Human H3 Ki

Sequence of human H3 receptor (Q9Y5N1 whole entry): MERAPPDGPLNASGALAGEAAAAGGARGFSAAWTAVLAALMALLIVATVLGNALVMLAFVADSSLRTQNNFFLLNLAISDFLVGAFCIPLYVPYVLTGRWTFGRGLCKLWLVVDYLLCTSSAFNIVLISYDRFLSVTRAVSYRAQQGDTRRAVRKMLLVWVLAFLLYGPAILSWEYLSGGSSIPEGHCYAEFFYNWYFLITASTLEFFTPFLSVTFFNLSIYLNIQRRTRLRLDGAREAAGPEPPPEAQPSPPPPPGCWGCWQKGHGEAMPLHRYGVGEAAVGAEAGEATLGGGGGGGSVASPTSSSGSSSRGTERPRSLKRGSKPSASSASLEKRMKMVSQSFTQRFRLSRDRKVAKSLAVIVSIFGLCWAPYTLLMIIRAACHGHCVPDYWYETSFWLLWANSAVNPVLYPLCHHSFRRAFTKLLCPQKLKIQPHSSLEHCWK

Structure (SMILES)	pKi
CSc1ccc(O[C@H]2C[C@H](C(=O)N3CCCN(C4CCC4)CC3)N(C(=O)OC(C)(C)C)C2)cc1 [Example 23, (2R,4S)-2-(4-Cyclobutyl-[1,4]diazepane-1-carbonyl)-4-(4-methylsulfanyl-phenoxy)-pyrrolidine-1-carboxylic acid tert-butyl ester]	8.15
CC(C)(C)OC(=O)N1C[C@@H](Oc2ccccc2)C[C@H]1C(=O)N1CCCN(C2CCC2)CC1 [Example 14, (2S,4S)-2-(4-Cyclobutyl-[1,4]diazepane-1-carbonyl)-4-phenoxy-pyrrolidine-1-carboxylic acid tert-butyl ester]	6.90
CC(C)(C)OC(=O)N1CC[C@@H](Oc2ccc(C#N)cc2)[C@H]1C(=O)N1CCCN(C2CCC2)CC1 [Example 145, (2S,3R)-3-(4-Cyano-phenoxy)-2-(4-cyclobutyl-[1,4]diazepane-1-carbonyl)-pyrrolidine-1-carboxylic acid tert-butyl ester]	5.96
CC(C)(C)OC(=O)N1C[C@@H](Oc2ccc(S(C)(=O)=O)cc2)C[C@@H]1C(=O)N1CCCN(C2CCC2)CC1 [Example 25, (2R,4S)-2-(4-Cyclobutyl-[1,4]diazepane-1-carbonyl)-4-(4-methanesulfonyl-phenoxy)-pyrrolidine-1-carboxylic acid tert-butyl ester]	8.30
CC(C)(C)OC(=O)N1C[C@H](Oc2ccccc2)C[C@@H]1C(=O)N1CCCN(C2CCC2)CC1 [Example 58, (2R,4R)-2-(4-Cyclobutyl-[1,4]diazepane-1-carbonyl)-4-phenoxy-pyrrolidine-1-carboxylic acid tert-butyl ester]	6.68
CC(C)(C)OC(=O)N1C[C@H](O)C[C@@H]1C(=O)N1CCN(C2CCCC2)CC1 [Example 6, (2R,4R)-2-(4-Cyclopentyl-piperazine-1-carbonyl)-4-hydroxy-pyrrolidine-1-carboxylic acid tert-butyl Ester]	5.96
CN(C)[C@H]1CCN(C(=O)[C@H]2C[C@H](Oc3cccc(F)c3)CN2)C1 [Example 85]	5.89
CC(C)(C)OC(=O)N1C[C@@H](Oc2ccc(C#N)cc2)C[C@@H]1C(=O)N1CCCN(C2CC2)CC1 [Example 32, (2R,4S)-4-(4-Cyano-phenoxy)-2-(4-cyclopropyl-[1,4]diazepane-1-carbonyl)-pyrrolidine-1-carboxylic acid tert-butyl ester]	8.00
CC(C)(C)OC(=O)N1C[C@@H](Oc2cccnc2)C[C@@H]1C(=O)N1CCCN(C2CCC2)CC1 [Example 53, (2R,4S)-2-(4-Cyclobutyl-[1,4]diazepane-1-carbonyl)-4-(pyridin-3-yloxy)-pyrrolidine-1-carboxylic acid tert-butyl ester]	8.70

Continued, values first:

pKi	Structure (SMILES)
7.30	O=C([C@@H]1C[C@@H](Cc2ccsc2)CN1)N1CCCN(C2CCC2)CC1 [Example 180, (2S,4R)-(4-Cyclobutyl-[1,4]diazepan-1-yl)-(4-thiophen-3-ylmethyl-pyrrolidin-2-yl)-methanone]
7.24	CC(C)(C)OC(=O)N1C[C@H](Oc2cccc(F)c2)C[C@@H]1C(=O)N1CCCN(C2CCC2)CC1 [Example 55, (2R,4R)-2-(4-Cyclobutyl-[1,4]diazepane-1-carbonyl)-4-(3-fluoro-phenoxy)-pyrrolidine-1-carboxylic acid tert-butyl ester]

Target: T1, cloned human H3 receptors (Homo sapiens, UniProt Q9Y5N1)
T1 construct: expressed in transfected cells
Assay: H3 Receptor Binding (Human) Method 1
Settings: receptor stably expressed in SK-N-MC cells, free base forms, average of results

T1 sequence (Q9Y5N1 whole entry): as above

Structure (SMILES)	pKi
CC(C)(C)OC(=O)N1CC(Oc2ccc(C#N)cc2)C[C@H]1C(=O)N1CCCN(C2CCC2)CC1 (stereo partly drawn) [Example 45, (2S)-4-(4-Cyano-phenoxy)-2-(4-cyclobutyl-[1,4]diazepane-1-carbonyl)-pyrrolidine-1-carboxylic acid tert-butyl ester]	8.10
CC(C)(C)OC(=O)N1CC(Oc2ccccc2)C[C@H]1C(=O)N1CCCN(C2CCC2)CC1 (stereo partly drawn) [Example 47, (2S)-2-(4-Cyclobutyl-[1,4]diazepane-1-carbonyl)-4-phenoxy-pyrrolidine-1-carboxylic acid tert-butyl ester]	7.30
CC(C)(C)OC(=O)N1C[C@@H](Oc2ccc(F)cc2)C[C@H]1C(=O)N1CCN(C2CCC2)CC1 [Example 12, (2S,4S)-2-(4-Cyclobutyl-piperazine-1-carbonyl)-4-(4-fluoro-phenoxy)-pyrrolidine-1-carboxylic acid tert-butyl ester]	< 5.82
CC(C)(C)OC(=O)N1C[C@H](OCc2cccc(F)c2)C[C@@H]1C(=O)N1CCCN(C2CCC2)CC1 [Example 150, (2R,4R)-2-(4-Cyclobutyl-[1,4]diazepane-1-carbonyl)-4-(3-fluoro-benzyloxy)-pyrrolidine-1-carboxylic acid tert-butyl ester]	7.11
CC(C)(C)OC(=O)N1C[C@H](O)C[C@H]1C(=O)N1CCCN(C2CCC2)CC1 [Example 1, (2S,4R)-2-(4-Cyclobutyl-[1,4]diazepane-1-carbonyl)-4-hydroxy-pyrrolidine-1-carboxylic acid tert-butyl Ester]	7.15
CC(C)(C)OC(=O)N1C[C@H](OCc2ccc(F)cc2)C[C@@H]1C(=O)N1CCCN(C2CCC2)CC1 [Example 151, (2R,4R)-2-(4-Cyclobutyl-[1,4]diazepane-1-carbonyl)-4-(4-fluoro-benzyloxy)-pyrrolidine-1-carboxylic acid tert-butyl ester]	7.47

More lines, now with the values ahead:

pKi	Structure (SMILES)
7.28	CC(C)(C)OC(=O)N1CC(Oc2ccc(Cl)c(Cl)c2)C[C@H]1C(=O)N1CCCN(C2CCC2)CC1 (stereo partly drawn) [Example 44, (2S)-2-(4-Cyclobutyl-[1,4]diazepane-1-carbonyl)-4-(3,4-dichloro-phenoxy)-pyrrolidine-1-carboxylic acid tert-butyl ester]
6.10	CC(C)C(=O)N1C[C@@H](Oc2ccc(F)cc2)C[C@H]1C(=O)N1CCCN(C2CCC2)CC1 [Example 117, (2S,4S)-1-[2-(4-Cyclobutyl-[1,4]diazepane-1-carbonyl)-4-(4-fluoro-phenoxy)pyrrolidin-1-yl]-2-methyl-propan-1-one]
6.09	CC(C)(C)CC(=O)N1C[C@@H](Oc2ccc(F)cc2)C[C@H]1C(=O)N1CCCN(C2CCC2)CC1 [Example 118, (2S,4S)-1-[2-(4-Cyclobutyl-[1,4]diazepane-1-carbonyl)-4-(4-fluoro-phenoxy)-pyrrolidin-1-yl]-3,3-dimethyl-butan-1-one]
6.80	O=C([C@H]1C[C@@H](OCc2ccc(F)cc2)CN1)N1CCCN(C2CCC2)CC1 [Example 155, (2R,4R)-2-(4-Cyclobutyl-[1,4]diazepane-1-carbonyl)-4-(4-fluoro-benzyloxy)-pyrrolidine]
7.62	CC(C)(C)OC(=O)N1CC(Oc2cccc(Cl)c2)C[C@H]1C(=O)N1CCCN(C2CCC2)CC1 (stereo partly drawn) [Example 42, (2S)-4-(3-Chloro-phenoxy)-2-(4-cyclobutyl-[1,4]diazepane-1-carbonyl)-pyrrolidine-1-carboxylic acid tert-butyl ester]
7.60	CC(C)(C)OC(=O)N1C[C@H](Oc2ccc(F)cc2)C[C@H]1C(=O)N1CCCN(C2CCC2)CC1 [Example 15, (2S,4R)-2-(4-Cyclobutyl-[1,4]diazepane-1-carbonyl)-4-(4-fluoro-phenoxy)-pyrrolidine-1-carboxylic acid tert-butyl ester]
6.69	CS(=O)(=O)N1C[C@@H](Oc2ccc(F)cc2)C[C@H]1C(=O)N1CCCN(C2CCC2)CC1 [Example 137, (2S,4S)-1-Methanesulfonyl-2-(4-cyclobutyl-[1,4]diazepane-1-carbonyl)-4-(4-fluoro-phenoxy)-pyrrolidine]
7.74	CC(C)(C)OC(=O)N1CC(Oc2cccc(F)c2)C[C@H]1C(=O)N1CCCN(C2CCC2)CC1 (mixture of isomers) [Example 41, (2S)-2-(4-Cyclobutyl-[1,4]diazepane-1-carbonyl)-4-(3-fluoro-phenoxy)-pyrrolidine-1-carboxylic acid tert-butyl ester]
8.30	CC(C)(C)OC(=O)N1C[C@@H](Oc2ccc(F)cc2)C[C@@H]1C(=O)N1CCCN(C2CCC2)CC1 [Example 18, (2R,4S)-2-(4-Cyclobutyl-[1,4]diazepane-1-carbonyl)-4-(4-fluoro-phenoxy)-pyrrolidine-1-carboxylic acid tert-butyl ester]
6.82	CCC(=O)N1C[C@@H](Oc2ccc(F)cc2)C[C@H]1C(=O)N1CCCN(C2CCC2)CC1 [Example 116, (2S,4S)-1-[2-(4-Cyclobutyl-[1,4]diazepane-1-carbonyl)-4-(4-fluoro-phenoxy)-pyrrolidin-1-yl]-propan-1-one]
7.46	CSc1ccc(OC2C[C@@H](C(=O)N3CCCN(C4CCC4)CC3)N(C(=O)OC(C)(C)C)C2)cc1 (stereo partly drawn) [Example 46, (2S)-2-(4-Cyclobutyl-[1,4]diazepane-1-carbonyl)-4-(4-methylsulfanyl-phenoxy)-pyrrolidine-1-carboxylic acid tert-butyl ester]
7.06	O=C([C@@H]1C[C@H](Oc2ccc(Cl)c(Cl)c2)CN1)N1CCCN(C2CCC2)CC1 [Example 93, (2S,4S)-2-(4-Cyclobutyl-[1,4]diazepane-1-carbonyl)-4-(3,4-dichloro-phenoxy)-pyrrolidine]
< 5.00	CS(=O)(=O)N1C[C@@H](Oc2ccc(F)cc2)C[C@H]1C(=O)N1CCN(C2CCC2)CC1 [Example 138, (2S,4S)-2-(4-Cyclobutyl-piperazin-1-yl)-[4-(4-fluoro-phenoxy)-1-methanesulfonyl-pyrrolidin-2-yl]-methanone]
6.52	CC(=O)N1C[C@@H](Oc2ccc(F)cc2)C[C@H]1C(=O)N1CCN(C2CCC2)CC1 [Example 119, (2S,4S)-1-[2-(4-Cyclobutyl-piperazine-1-carbonyl)-4-(4-fluoro-phenoxy)-pyrrolidin-1-yl]-ethanone]
7.43	CC(C)(C)OC(=O)N1C[C@@H](Oc2ccc(F)cc2)C[C@H]1C(=O)N1CCCN(C2CCC2)CC1 [Example 11, (2S,4S)-2-(4-Cyclobutyl-[1,4]diazepane-1-carbonyl)-4-(4-fluoro-phenoxy)-pyrrolidine-1-carboxylic acid tert-butyl ester]
7.29	O=C([C@@H]1C[C@@H](Oc2ccc(Cl)c(Cl)c2)CN1)N1CCCN(C2CCC2)CC1 [Example 92, (2S,4R)-2-(4-Cyclobutyl-[1,4]diazepane-1-carbonyl)-4-(3,4-dichloro-phenoxy)-pyrrolidine]
